The record followed here is patent US20060099676A1, “Mammalian genes involved in rapamycin resistance and tumorgenesis: rapr6 genes” (priority 2002, published 2006).

This assay deals with N2a cells. Briefly: MTT proliferation assay: rapamycin mediated cell growth inhibition of N2a cells. The assay is classed as cell-based, mouse. The settings on record: FIG. 7. An excerpt: In a preferred embodiment, an MTT proliferation assay (see, e.g., van de Loosdrechet, et al., 1994, J. Immunol. Methods 174: 311-320; Ohno et al., 1991, J. Immunol. Methods 145:199-203; Ferrari et al., 1990, J. Immunol. Methods 131: 165-172; Alley et al., 1988, Cancer Res. 48: 589-601; Carmichael et al., 1987, Cancer Res. 47:936-942; Gerlier et al., 1986, J. Immunol. Methods 65:55-63; Mosmann, 1983, J. Immunological Methods 65:55-63) is used to screen for a candidate agent in conjunction with rapamycin to inhibit the growth of rapamycin resistant cells. The cells are treated with chosen concentrations of the candidate agent and rapamycin for 4 to 72 hours. The cells are then incubated with a suitable amount of 3-(4,5-dimethylthiazol-2-yl)-2,5-diphenyitetrazoiium bromide (MTT) for 1-8 hours such that viable cells convert MTT into an intracellular deposit of insoluble formazan. After removing the excess MTT contained in the supernatant, a suitable MTT solvent, e.g., a DMSO solution, is added to dissolved the formazan. The concentration of […], which is proportional to the number of viable cells, is then measured by determining the optical density at 570 nm. A plurality of different concentrations of the candidate agent can be assayed to allow the determination of the concentrations of the candidate agent and rapamycin which causes 50% inhibition. […]

For `CO[C@H]1C[C@@H]2CC[C@@H](C)[C@@](O)(O2)C(=O)C(=O)N2CCCC[C@H]2C(=O)O[C@H]([C@H](C)C[C@@H]2CC[C@@H](O)[C@H](OC)C2)CC(=O)[C@H](C)/C=C(\C)[C@@H](O)[C@@H](OC)C(=O)[C@H](C)C[C@H](C)/C=C/C=C/C=C/1C` [rapamycin, 9,10,12,13,14,21,22,23,24,25,26,27, 32,33,34,34a-hexadecahydro-9,27-dihydroxy-3-[2-(4-hydroxy-3-methoxycyclohexyl)-1-methylethyl]-10,21-dimethoxy-6,8,12,14,20,26-hexamethyl-23,27-epoxy-3H-pyrido[2,1-c][1,4]oxaazacyclohentricontine-1,5,11,28,29(4H,6H,31H)-pentone], the “rapamycin concentration at which the growth of N2a cells is completely inhibited” value (N2a cell line) was no less than 1 µM. The “concentration at which N2a cells are sensitive to rapamycin mediated cell growth inhibition” value (mouse neuroblastoma N2a cells, MTT assay) turned out to be 10 nM.
